Our source for the Kd values is US12054483B2, “Small molecule inhibitors of DYRK/CLK and uses thereof” (Arizona Board of Regents on Behalf of the University of …, priority 2018, dated 2024).

The target of the assay is DYRK1A (Homo sapiens, UniProt Q13627). Put plainly: Affinity testing of compounds with DYRK1A (KD). The class given is binding. As to conditions: DYRK1A affinity key classes.

Turning to `Cc1nc2ccc(-c3ccnc(N)c3)nc2n1-c1cnc(N2CCOCC2)c(C2CC2)c1` [Compound 163, 4-(3-(5-cyclopropyl-6-morpholinopyridin-3-yl)-2-methyl-3H-imidazo[4,5-b]pyridin-5-yl)pyridin-2-amine], the Kd (commonly the free concentration of one partner at which half of the binding sites on the other are occupied at equilibrium, for simple one-to-one binding) was 0.5 to 100 nM. For the compound `O=C(O)c1ccnc(-n2cnc3ccc(-c4ccncc4)c(F)c32)c1` [Compound 13, 2-(7-fluoro-6-(pyridin-4-yl)-1H-benzo[d]imidazol-1-yl)isonicotinic acid], the Kd lay within 501 to 10000 nM. In turn, `Cc1nc2ccc(-c3ccncc3)nc2n1-c1ccc(=O)n(C)c1` [Compound 41, 1-methyl-5-(2-methyl-5-(pyridin-4-yl)-3H-imidazo[4,5-b]pyridin-3-yl)pyridin-2(1H)-one] showed a Kd of 101 to 500 nM. The compound `Cc1nc2ccc(-c3ccnc(N)c3)nc2n1-c1ccc(CN2CCOCC2)nc1` [Compound 149, 4-(2-methyl-3-(6-(morpholinomethyl)pyridin-3-yl)-3H-imidazo[4,5-b]pyridin-5-yl)pyridin-2-amine] showed a Kd of 501 to 10000 nM.

Turning to `COc1cnc(-c2ccnc(N)c2)nc1` [Compound 69, 4-(5-methoxypyrimidin-2-yl)pyridin-2-amine], the Kd was 101 to 500 nM.

In the case of `Cc1nc2ccc(-c3ccncc3)nc2n1-c1ccc2[nH]cnc2c1` [Compound 32, 3-(1H-benzo[d]imidazol-5-yl)-2-methyl-5-(pyridin-4-yl)-3H-imidazo[4,5-b]pyridine], the Kd is 0.5 to 100 nM. Compound `Cc1nc2ccc(-c3ccnc(N)c3)nc2n1-c1ccc2[nH]ccc2c1` [Compound 150, 4-(3-(1H-indol-5-yl)-2-methyl-3H-imidazo[4,5-b]pyridin-5-yl)pyridin-2-amine] came in with a Kd of 0.5 to 100 nM. Under `Cc1nc2ccc(-c3ccnc(N)c3)nc2n1-c1ccc(=O)n(C)c1` [Compound 48, 5-(5-(2-aminopyridin-4-yl)-2-methyl-3H-imidazo[4,5-b]pyridin-3-yl)-1-methylpyridin-2(1H)-one] stands 0.5 to 100 nM; under `N#Cc1ccc(-n2cnc3ccc(-c4ccncc4)c(F)c32)nc1` [Compound 14, 6-(7-fluoro-6-(pyridin-4-yl)-1H-benzo[d]imidazol-1-yl)nicotinonitrile], 0.5 to 100 nM; under `CN1CCN(Cc2ccc(-c3cnc4ccc(-c5ccncc5)nn34)cc2)CC1` [Compound 100, 3-(4-((4-methylpiperazin-1-yl)methyl)phenyl)-6-(pyridin-4-yl)imidazo[1,2-b]pyridazine], 101 to 500 nM. Take `c1cc(-c2ccc3ncc(-c4ccc(N5CCOCC5)nc4)n3n2)ccn1` [Compound 73, 4-(5-(6-(pyridin-4-yl)imidazo[1,2-b]pyridazin-3-yl)pyridin-2-yl)morpholine]: the equilibrium dissociation constant (Kd) was in the range of 0.5 to 100 nM. As for `Fc1cnccc1-c1ccc2ncc(-c3ccc(CN4CCCCC4)cc3)n2n1` [Compound 109, 6-(3-fluoropyridin-4-yl)-3-(4-(piperidin-1-ylmethyl)phenyl)imidazo[1,2-b]pyridazine], the figure is 501 to 10000 nM. With `Cc1nc2ccc(-c3ccnc(N)c3)nc2n1-c1ccc(N2CCOC[C@@H]2C)c(F)c1` [Compound 171, (S)-4-(3-(3-fluoro-4-(3-methylmorpholino)phenyl)-2-methyl-3H-imidazo[4,5-b]pyridin-5-yl)pyridin-2-amine], the Kd was in the range of 0.5 to 100 nM. `Cc1cc(-c2ccc3ncc(-c4ccc(CN5CCOCC5)cc4)n3n2)ccn1` [Compound 90, 4-(4-(6-(2-methylpyridin-4-yl)imidazo[1,2-b]pyridazin-3-yl)benzyl)morpholine]: the Kd lay in the range of 101 to 500 nM. `c1cc(-c2ccc3ncc(-c4ccc(CN5CCOCC5)cc4)n3n2)ccn1` [Compound 96, 4-(4-(6-(pyridin-4-yl)imidazo[1,2-b]pyridazin-3-yl)benzyl)morpholine]: the Kd is 101 to 500 nM.

`Cc1nc2ncc(-c3ccnc(N)c3)nc2n1-c1ccc(N2CCOCC2)cc1` [Compound 128, 4-(2-methyl-1-(4-morpholinophenyl)-1H-imidazo[4,5-b]pyrazin-6-yl)pyridin-2-amine]: the Kd lay in the range of 501 to 10000 nM.

In the case of `Cc1nc2ccc(-c3ccncc3)nc2n1-c1ccc(CN2C[C@@H](C)N(C)[C@@H](C)C2)cc1` [Compound 119, 2-methyl-5-(pyridin-4-yl)-3-(4-(((3R,5S)-3,4,5-trimethylpiperazin-1-yl)methyl)phenyl)-3H-imidazo[4,5-b]pyridine], the Kd was in the range of 0.5 to 100 nM. On to `Cc1nc2ccc(-c3ccncc3)nc2n1-c1ccc2c(c1)OCO2` [Compound 29, 3-(benzo[d][1,3]dioxol-5-yl)-2-methyl-5-(pyridin-4-yl)-3H-imidazo[4,5-b]pyridine], for which the Kd is 0.5 to 100 nM. `CC(=O)N1CC[C@H](n2c(C)nc3ccc(-c4ccncc4)nc32)C1` [Compound 39, (S)-1-(3-(2-methyl-5-(pyridin-4-yl)-3H-imidazo[4,5-b]pyridin-3-yl)pyrrolidin-1-yl)ethan-1-one] had a Kd of 101 to 500 nM.

Take `CC(=O)N1CCN(c2cnc3ccc(-c4ccncc4)nn23)CC1` [Compound 85, 1-(4-(6-(pyridin-4-yl)imidazo[1,2-b]pyridazin-3-yl)piperazin-1-yl)ethan-1-one]: the Kd lay within 501 to 10000 nM. Compound `Cc1cc(-c2ccc3nc(C)n(-c4ccc5[nH]cnc5c4)c3n2)ccn1` [Compound 50, 3-(1H-benzo[d]imidazol-5-yl)-2-methyl-5-(2-methylpyridin-4-yl)-3H-imidazo[4,5-b]pyridine] yielded a Kd of 0.5 to 100 nM. `Cc1nc2ccc(-c3ccncc3)nc2n1-c1ccc(CN2CCCC(F)(F)C2)cc1` [Compound 65, 3-(4-((3,3-difluoropiperidin-1-yl)methyl)phenyl)-2-methyl-5-(pyridin-4-yl)-3H-imidazo[4,5-b]pyridine] displayed a Kd of 101 to 500 nM.

`N#Cc1cnccc1-c1ccc2ncc(-c3ccc(CN4CCOCC4)cc3)n2n1` [Compound 106, 4-(3-(4-(morpholinomethyl)phenyl)imidazo[1,2-b]pyridazin-6-yl)nicotinonitrile]: the Kd lay within 501 to 10000 nM. Under `Nc1cc(-c2ccc3ncc(-c4ccc(CN5CCCCC5)cc4)n3n2)ccn1` [Compound 110, 4-(3-(4-(piperidin-1-ylmethyl)phenyl)imidazo[1,2-b]pyridazin-6-yl)pyridin-2-amine] stands 0.5 to 100 nM; under `Cc1nc2ccc(-c3ccncc3)c(F)c2n1-c1ccc2c(c1)OCO2` [Compound 19, 1-(benzo[d][1,3]dioxol-5-yl)-7-fluoro-2-methyl-6-(pyridin-4-yl)-1H-benzo[d]imidazole], 0.5 to 100 nM; under `Cc1nc2ccc(-c3ccncc3)nc2n1-c1ccc(CN2CCOC(C)(C)C2)cc1` [Compound 120, 2,2-dimethyl-4-(4-(2-methyl-5-(pyridin-4-yl)-3H-imidazo[4,5-b]pyridin-3-yl)benzyl)morpholine], 0.5 to 100 nM. As for `Cc1nc2ccc(-c3ccnc(N)c3)nc2n1-c1ccc(N2C[C@H](C)O[C@@H](C)C2)c(F)c1` [Compound 183, 4-(3-(4-((2S,6S)-2,6-dimethylmorpholino)-3-fluorophenyl)-2-methyl-3H-imidazo[4,5-b]pyridin-5-yl)pyridin-2-amine], the figure is 0.5 to 100 nM; as for `Cc1nc2ccc(-c3cc[nH]c(=O)c3)nc2n1-c1ccc(N2CCOCC2)cc1` [Compound 54, 4-(2-methyl-3-(4-morpholinophenyl)-3H-imidazo[4,5-b]pyridin-5-yl)pyridin-2(1H)-one], 501 to 10000 nM. On to `Cc1nc2ccc(-c3ccncc3)nc2n1-c1ccc2[nH]ccc2c1` [Compound 136, 3-(1H-indol-5-yl)-2-methyl-5-(pyridin-4-yl)-3H-imidazo[4,5-b]pyridine], for which the Kd is 0.5 to 100 nM. As for `Nc1cc(-c2ccc3nccn3n2)ccn1` [Compound 24, 4-(imidazo[1,2-b]pyridazin-6-yl)pyridin-2-amine], the figure is 0.5 to 100 nM; as for `Cc1nc2ccc(-c3ccnc(N)c3)nc2n1-c1ccnc(N2CCOCC2)c1` [Compound 164, 4-(2-methyl-3-(2-morpholinopyridin-4-yl)-3H-imidazo[4,5-b]pyridin-5-yl)pyridin-2-amine], 0.5 to 100 nM; as for `Cc1cc(-c2ccc3ncc(-c4ccc(N5CCOCC5)nc4)n3n2)ccn1` [Compound 80, 4-(5-(6-(2-methylpyridin-4-yl)imidazo[1,2-b]pyridazin-3-yl)pyridin-2-yl)morpholine], 101 to 500 nM. `FC1CN(Cc2ccc(-c3cnc4ccc(-c5ccncc5)nn34)cc2)C1` [Compound 99, 3-(4-((3-fluoroazetidin-1-yl)methyl)phenyl)-6-(pyridin-4-yl)imidazo[1,2-b]pyridazine] registered a Kd of 0.5 to 100 nM. Consider `CC(=O)N1C[C@@H]2[C@H](C1)[C@H]2n1c(C)nc2ccc(-c3ccnc(N)c3)nc21` [Compound 47, 1-((1R,5S,6s)-6-(5-(2-aminopyridin-4-yl)-2-methyl-3H-imidazo[4,5-b]pyridin-3-yl)-3-azabicyclo[3.1.0]hexan-3-yl)ethan-1-one], for which the Kd lay within 0.5 to 100 nM. Regarding `Cc1nc2cnc(-c3ccnc(N)c3)cc2n1-c1cccc(CN2CCOCC2)c1` [Compound 180, 4-(2-methyl-1-(3-(morpholinomethyl)phenyl)-1H-imidazo[4,5-c]pyridin-6-yl)pyridin-2-amine], the Kd was 101 to 500 nM. With `c1cc(-c2ccc3ncn(-c4ccc5c(c4)OCO5)c3n2)ccn1` [Compound 4, 3-(benzo[d][1,3]dioxol-5-yl)-5-(pyridin-4-yl)-3H-imidazo[4,5-b]pyridine], the Kd fell in the range of 0.5 to 100 nM. In turn, `Fc1cnccc1-c1ccc2ncc(-c3ccc(CN4CCOCC4)cc3)n2n1` [Compound 105, 4-(4-(6-(3-fluoropyridin-4-yl)imidazo[1,2-b]pyridazin-3-yl)benzyl)morpholine] had a Kd of 501 to 10000 nM. On to `c1cc(-c2ccc3ncc(-c4ccc(CN5CCCC5)cc4)n3n2)ccn1` [Compound 103, 6-(pyridin-4-yl)-3-(4-(pyrrolidin-1-ylmethyl)phenyl)imidazo[1,2-b]pyridazine], for which the Kd lay in the range of 101 to 500 nM. As for `Cc1nc2cc(-n3c(C)nc4ccc(-c5cn[nH]c5)nc43)ccc2o1` [Compound 36, 2-methyl-5-(2-methyl-5-(1H-pyrazol-4-yl)-3H-imidazo[4,5-b]pyridin-3-yl)benzo oxazole], the figure is 101 to 500 nM; as for `COC(=O)c1ccc(-n2cnc3c(F)cc(-c4ccncc4)cc32)cc1` [Compound 16, methyl 4-(4-fluoro-6-(pyridin-4-yl)-1H-benzo[d]imidazol-1-yl)benzoate], 0.5 to 100 nM.
